Like-named read-outs stand apart in the source and are kept apart here. One block for each compound: values may come before it.
How the values were obtained:
rat liver microsome = assay: Formation of lipid peroxide in vitro in rat liver microsome (TBA method); type: biochemical
Description: Lipid peroxide was produced in vitro by using rat liver microsome. The microsome was prepared in a usual method from rat starved for 24 hours, and the final concentration thereof was adjusted to 15 - 18 mg proteins/ml.
To the thus prepared microsome was added Fe(N03)3, ADP (adenosine diphosphate), NADPH (nicotinamide adenine dinucleotide phosphate), glucose 6-phosphate and glucose 6-phosphate dehydrogenase so that the final concentrations of these additives were 200 uM, 7 mM, 7.5 mM, 20 mM and 2.0 U.I., respectively.
The resultant mixture was incubated at 37°C to produce the lipid peroxide. The activity of compound No. 1 and vitamin E to inhibit the formation of the lipid peroxide was measured. The quantity of the lipid peroxide was determined in accordance with TBA method (thiobarbiturate method, "Biochemical Medicine", Vol. 15, p. 212 (1976)) and expressed in terms of MDA (malon dialdehyde) amount (nmol) in 1 mg of protein.

isolated hepatocytes = assay: Formation of lipid peroxide in isolated hepatocytes after addition of carbon tetrachloride; type: cell-based, rat; conditions: Concentration 10 µM, carbon tetrachloride 5 mM; for inhibition at 10 µM: Rattus norvegicus, Hepatocyte, 3 hours, read-out: Free MDA (3 hours) % Inhibition
Description: Lipid peroxide was produced in vitro in cell membranes by using hepatocytes isolated by means of collagenase.
The isolated hepatocytes were prepared by the method of collagenase perfusion from the liver of rat which was fed for one week with phenobarbital in drinking water. The isolated hepatocytes (1 x 10^6 cells/ml Hanks solution containing 1 % BSA and 10 mM HEPES, pH 7.4) were taken into a conical flask in which test compounds were placed. Then, the cells were incubated at 37°C and produced the lipid peroxide by the addition of carbon tetrachloride (5 mM).
The activity of the compounds shown in Table I and vitamin E to inhbit the formation of the lipid peroxide was measured. The amount of the lipid peroxide was determined in accordance with the method of Mihara et al. (Yakugaku Zasshi; Journal of the Pharmaceutical Society of Japan, Vol. 102, No. 7, 670-677 (1982)) and expressed in terms of inhibition rate (%) of the formation of lipid peroxide after the addition of carbon tetrachloride.

[1] = tested on: liver of the carbon tetrachloride-treated rat; assay: Lipid peroxide in the liver of carbon tetrachloride-treated rat, oral administration; type: in vivo; conditions: 24 hours after CCl4
Description: The lipid peroxide in the liver of the rat treated with CC14 increases. Carbon tetrachloride of 25 % V/V in olive oil was administered orally to rats by the dose of 2 ml/kg. After 24 hours, the amount of the lipid peroxide in the liver of the carbon tetrachloride-treated rat was increased to approx. 6 times higher than untreated rat. The amount of the lipid peroxide was determined by the method of Mihara et al. as in Example 3 and was expressed in terms of MDA amount (nmol) in 1 g of liver. The activity of compound No. 1 and vitamin E to inhibit the formation of the lipid peroxide was measured. Compound No. 1 was orally administered to the carbon tetrachloride-treated rat in the form of suspension in the surfactant "Tween 80" by the amount of 25, 50 or 100 mg/kg/day nine days before the treatment of carbon tetrachloride.

[2] = tested on: rat polymorphonuclear leukocytes (PMN); assay: Production of O2- by polymorphonuclear leukocytes stimulated with PMA (cytochrome C reduction); type: cell-based; conditions: Leukocyte, PMA 125 ng/ml; for inhibition at 3.3 µM: Conc. 3.3 µM; for inhibition at 10 µM: Conc. 10.0 µM; for inhibition at 33 µM: Conc. 33.0 µM
Description: In 20 hours after injection of 10 ml of 1 % casein into the abdominal cavity of a […], many polymorphonuclear leukocytes appear in the cavity. An activity of the polymorphonuclear leukocytes can be determined in an in vitro system. Briefly stated, addition of phorbol myristate acetate, PMA, as a stimulant into a test tube containing a buffer and the polymorphonuclear leukocytes induces the production of O2^- by the polymorphonuclear leukocytes. […] See Wei Hsueh et al., Nature, 290 (23), 710-713 (1981).
Thus, measurements were carried out using rat polymorphonuclear leukocytes (PMN) induced by 1 % casein and PMA (phorbol-12-myristate-13-acetate) as a stimulant. First, 1,830 µl of phosphate buffer, pH 7,4, 50 µl of cytochrome C (Cyt C) in BSA, 20 µl of a sample (compound) and 50 µl of PMN were stirred at 37°C. After adding 50 µl of PMA to a final concentration of 125 ng/ml, the change of Cyt C reduction was traced by an absorption at 550 nm. The number of PMN per tube was 2 x 10^6 cells.

Mast cells = assay: Histamine release from mast cells stimulated with compound 48/80 or ascarid protein; type: cell-based, male Wistar rats; conditions: compound 48/80 and protein from epidermis of ascarid as stimulants
Description: Histamine release can be experimentally investigated in vitro with use of mast cells derived from rat's abdominal cavity. Thus, after the mast cells are pre-incubated in the presence of an IgE antibody, e.g. IgE antibody prepared by sensitization of rabbit with a protein derived from the epidermis of ascarid, addition of a corresponding IgE antigen, e.g. the protein prepared from the epidermis of ascarid, induces the release of histamine from the mast cells. Such release of histamine can also be induced by addition of an artificial stimulant compound 48/80, ATP (adenosine triphosphate) to mast cells.
Mast cells were collected from the abdominal cavity of male Wistar rats of 400 - 450 g in body weight in a conventional manner. After pre-incubation of 5 x 10^4 cells in Krebs-Ringer buffer, pH 7.4, for 10 minutes, 0,1 µg/ml of the compound 48/80 was added. After incubation for an additional 10 minutes, the cells were removed by centrifugation at 3,000 rpm for 5 minutes. Thereafter, histamine in the supernatant was quantitatively measured according to Shore's method described in J. Phar. […] As a control, total amount of histamine contained in mast cell was measured. A ratio of the amount of histamine released after the treatment with the compound 48/80 as a stimulant to the total amount of histamine as the control was calculated according to the following equation : [formula]

[3] = Plasma concentration (AUC) after oral administration to beagle dogs, after fast or after diet; type: in vivo; conditions: male, dog, 200 mg/kg, 30 minutes after diet, dogs No. 1-5 and mean in last row, read-out: AUC of tritoqualine concentration in blood for 5 hours
Description: Tritoqualine was orally administered to male beagle dogs, […], body weight of 9.5 - 12 kg, Hazleton, after fast or 30 minutes after diet in a dose of 200 mg/kg.
Tritoqualine had been subjected to micronization by a jet mill PJM-100NP, NIHON NEWMATIC KOGYO KK, JAPAN (10 % or more of 3 microns or less, 80 % of 3-15 microns and 10 % or less of 15 microns or more; average of 7 microns) or a screen of 100 mesh under. The obtained particles were suspended in aqueous 1 % Tween 80 solution before use. […]
Before the administration, and 0.5, 1, 2, 3 and 5 hours after the administration, 1 ml of blood was taken out of the vein of front leg, placed into a BHA-coated centrifugal tube "VENOJECT" containing heparin, TERMO INC., and centrifuged. Hundred microliters of the thus obtained plasma was placed into a small glass test tube, which had been coated with 1 microgram of BHA. Into the tube were added 190 microliters of noscapine (100 micrograms in ml of acetonitrile) as an internal standard and 10 microliters of acetonitrile. After blending for one minute, the mixture was centrifuged at 3,000 rpm for 5 minutes. The resulting supernatant was subjected to HPLC under the conditions described below.
The quantitative measurements of tritoqualine in the plasma were carried out according to the internal standard method. The area under curve (AUC) was calculated by the trapezoidal rule. […]

[4] = tested on: patients suffering from chronic hepatitis; assay: Clinical investigation in chronic hepatitis, oral administration for 8 weeks after every diet; type: in vivo; conditions: for improvement of liver functions (patients): 8 weeks
Description: To patients suffering from chronic hepatitis tritoqualine was administered orally for 8 weeks continuously in a daily dose of 150 or 300 mg after every diet.
Glutamate oxaloacetate transaminase (GOT) and glutamate pyruvate transaminase (GPT) were measured just before the first administration, and 4 and 8 weeks after the first administration.
During the above investigations, there were few cases where slight side effects such as dizziness and nausea, which were suspected to have a relation with the administered drug, appeared : in one case among 65 cases administered in a dose of 150 mg, i.e. 1.5 %; and 8 cases among 137 cases in a dose of 300 mg, i.e. 5.8 %.
When tritoqualine was administered in a dose of 600 mg in the same manner as described above, side effects appeared in 24 cases among 164 cases, i.e. 14.6 %.

[5] = tested on: patients with chronic active hepatitis; conditions: daily dosages 600 to 1600 mg, 13 patients; particularly at 1200-1600 mg/day; cited from earlier work
[6] = 10 µM, Incubation Period 10 min
[7] = 100 µM, Incubation Period 5 min
[8] = 100 µM, Incubation Period 10 min

Compound: CCOc1c(N)c2c(c(OCC)c1OCC)C(C1c3c(cc4c(c3OC)OCO4)CCN1C)OC2=O (stereo not drawn) [Compound No. 1, 7-amino-4,5,6-triethoxy-3-(5,6,7,8-tetrahydro-4-methoxy-6-methyl-1,3-dioxolo(4,5-g)isoquinolin-5-yl)phthalide]
- MDA Amount Produced (rat liver microsome; 3.3 µM, Incubation Period 5 min): 1.80 ± 0.12 nmol/mg of protein
- MDA Amount Produced (rat liver microsome; 3.3 µM, Incubation Period 10 min): 2.25 ± 0.21 nmol/mg of protein
- MDA Amount Produced (rat liver microsome; 10 µM, Incubation Period 5 min): 1.71 ± 0.12 nmol/mg of protein
- MDA Amount Produced (rat liver microsome; [6]): 1.80 ± 0.06 nmol/mg of protein
- MDA Amount Produced (rat liver microsome; 33 µM, Incubation Period 5 min): 1.50 ± 0.05 nmol/mg of protein
- MDA Amount Produced (rat liver microsome; 33 µM, Incubation Period 10 min): 1.62 ± 0.02 nmol/mg of protein
- MDA Amount Produced (rat liver microsome; [7]): 1.37 ± 0.02 nmol/mg of protein
- MDA Amount Produced (rat liver microsome; [8]): 1.37 ± 0.05 nmol/mg of protein
- inhibition at 10 µM (isolated hepatocytes): 77.3%
- MDA Amount Produced ([1]; 25 mg/kg oral): 333.0 ± 54.3 nmol/g of liver
- MDA Amount Produced ([1]; 50 mg/kg oral): 328.5 ± 50.8 nmol/g of liver
- MDA Amount Produced ([1]; 100 mg/kg oral): 171.0 ± 23.6 nmol/g of liver
- inhibition at 3.3 µM [2]: 15.4%
- inhibition at 10 µM [2]: 53.9%
- inhibition at 33 µM [2]: 58.8%
- IC50 [2]: 15.9 µM
- inhibiting activity to the histamine release (Mast cells): strong inhibiting activity

Compound: Vitamin E [reference compound]
- MDA Amount Produced (rat liver microsome; [6]): 2.37 ± 0.21 nmol/mg of protein
- MDA Amount Produced (rat liver microsome; [7]): 2.06 ± 0.001 nmol/mg of protein
- MDA Amount Produced (rat liver microsome; [8]): 2.62 ± 0.07 nmol/mg of protein
- MDA Amount Produced (rat liver microsome; 1000 µM, Incubation Period 5 min): 2.06 ± 0.016 nmol/mg of protein
- MDA Amount Produced (rat liver microsome; 1000 µM, Incubation Period 10 min): 2.29 ± 0.14 nmol/mg of protein
- Free MDA (3 hours) % Inhibition (isolated hepatocytes): 13%
- MDA Amount Produced ([1]; 50 mg/kg oral): 104.0 ± 18.4 nmol/g of liver

Compound: CCOc1c(OCC)c2c(c([N+](=O)[O-])c1OCC)C(=O)OC2C1c2c(cc3c(c2OC)OCO3)CCN1C (stereo not drawn) [compound 4]
- inhibition at 10 µM (isolated hepatocytes): 28.6%

Compound: COc1ccc2c(c1OC)C(=O)OC2C1c2c(cc3c(c2OC)OCO3)CCN1C (stereo not drawn) [compound 2]
- inhibition at 10 µM (isolated hepatocytes): 42.4%

Second part, led by results:

- IC50 [2]: 7.2 µM
Compound: CCOc1c(N)c2c(c(OCC)c1OCC)C(C1c3c(cc(OC)c4c3OCO4)CCN1C)OC2=O (stereo not drawn) [compound 3]
- inhibition at 10 µM (isolated hepatocytes): 76.9%
- inhibition at 3.3 µM [2]: 34.9%
- inhibition at 10 µM [2]: 59.9%
- inhibition at 33 µM [2]: 66.2%
- inhibiting activity to the histamine release (Mast cells): strong inhibiting activity

- IC50 [2]: 1.8 µM
Compound: CCOc1c(N)c2c(c(OCC)c1OCC)C(C1c3c(cc4c(c3OC)OCO4)CCN1CC)OC2=O (stereo not drawn) [compound 5, 2-ethyl-6,7-methylenedioxy-8-methoxy-1-(4,5,6-triethxy-7-amino-3-phthalidyl)-1,2,3,4-tetrahydroisoquinoline]
- inhibition at 10 µM (isolated hepatocytes): 68.6%
- inhibition at 3.3 µM [2]: 49.2%
- inhibition at 10 µM [2]: 65.8%
- inhibition at 33 µM [2]: 60.3%

- AUC ([3]; 100 mesh under 200 mg/kg oral): 187 ng·h/mL
- AUC ([3]; Micronisation 200 mg/kg oral): 674 ng·h/mL
Compound: CCOc1c(N)c2c(c(OCC)c1OCC)C(C1c3c(cc4c(c3OC)OCO4)CCN1C)OC2=O (stereo not drawn) [tritoqualine, 7-amino-4,5,6-triethoxy-3-(5,6,7,8-tetrahydro-4-methoxy-6-methyl-1,3-dioxolo(4,5-g)isoquinolin-5-yl)phthalide]
- improvement of liver functions (patients) ([4]; daily dose 150 mg oral, 27 among 62 patients): 44.3%
- improvement of liver functions (patients) ([4]; daily dose 300 mg oral, 79 among 135 patients): 61.2%
- side effects such as dizziness and nausea (cases) ([4]; dose of 150 mg, one case among 65 cases): 1.5%
- side effects such as dizziness and nausea (cases) ([4]; dose of 300 mg, 8 cases among 137 cases): 5.8%
- side effects (cases) ([4]; dose of 600 mg, 24 cases among 164 cases): 14.6%
- fibrosis with cellular infiltration on biopsied liver specimens [5]: reduction of fibrosis
- liver functions [5]: marked improvement

- IC50 [2]: 45.1 µM
Compound: CCOc1c(N)c2c(c(OCC)c1OCC)C(C1c3cc(OC)c(OC)cc3CCN1C)OC2=O (stereo not drawn) [compound 6]
- inhibition at 10 µM (isolated hepatocytes): 47.6%
- inhibition at 3.3 µM [2]: 0.9%
- inhibition at 10 µM [2]: 14%
- inhibition at 33 µM [2]: 41.1%

— patent EP0201359A2, “Use of phthalide isoquinoline derivatives for treatments inhibiting the formation of lipid peroxides” (MITSUBISHI KASEI CORPORATION, priority 1985, dated 1986)
